Measured values reported in the supplement of paper PMC4862054.

Columns and labels:
[1] = test system: CAL-51; details: 72 h
Procedure: (§1)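 Drug sensitivity and resistance testing (DSRT) of breast cancer cell lines in 384-well plates, 5 concentrations in 10-fold dilutions over a compound-specific 10,000-fold range. After 72 h, cytotoxicity was read by CellTox Green fluorescence and viability by CellTiter-Glo luminescence (multiplexed), normalised to DMSO and benzethonium chloride controls. EC50 is the inflection point of the fitted dose-response curve (bottom asymptote free, so it can be relative for partial curves) and is censored at the highest tested concentration. Rows with DSS 0 (no meaningful response) were excluded.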

[2] = test system: MDA-MB-468; details: 72 h
Procedure: as §1

[3] = test system: MDA-MB-468; assay: normalised viability (% of control), CellTiter-Blue; higher = more viable cells (about 100 = DMSO control); details: incubation time: 72 h
Procedure, shortened: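 The reported figure is normalised viability at a single listed concentration of the series. Breast cancer cell lines (20 µl suspension) went onto 384-well plates holding compound in 5 µl medium for 72 h. CellTiter-Blue (2.5 µl, 2 h, 37 °C) was read by fluorescence at 560/590 nm, and each plate was scaled to vehicle at 100 and a positive kill control at 0.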

[4] = test system: HDQ-P1; details: 72 h
Procedure, shortened: (§2)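 EC50 is the value from a fitted percent-inhibition dose-response curve, censored at the highest concentration, and rows with zero drug sensitivity score were not kept. The underlying assay seeded breast cancer cell lines in 20 µl onto 384-well plates pre-loaded with compound in 5 µl medium for 72 h. Viability was then read by CellTiter-Blue fluorescence at 560/590 nm after 2 h at 37 °C, with each plate normalised to vehicle and a positive kill control.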

[5] = test system: CAL-85-1; details: 72 h
Procedure, shortened: as §2

[6] = test system: SK-BR-3; details: 72 h
Procedure, shortened: as §2

[7] = test system: HCC1937; details: 72 h
Procedure, shortened: as §2

[8] = test system: HCC1599; details: 72 h
Procedure, shortened: as §2

[9] = test system: BT-549; details: 72 h
Procedure, shortened: as §2

[10] = test system: HCC1143; details: 72 h
Procedure, shortened: as §2

[11] = test system: BT-474; details: 72 h
Procedure, shortened: as §2

[12] = test system: Hs578T; details: 72 h
Procedure, shortened: as §2

[13] = test system: DU-4475; details: 72 h
Procedure, shortened: (§3)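 For viability and cell death testing, 384-well plates carried compound at 5 concentrations in 10-fold steps over a compound-specific 10,000-fold range, and breast cancer cell lines were seeded in 20 µl suspension. After 72 h incubation, cell death was read by CellTox Green fluorescence (485/520 nm) before viability was read by CellTiter-Glo luminescence. EC50 was fitted from the dose-response curves and censored at the top concentration. Normalisation on each plate was to 0.1 % DMSO and a positive kill control.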

[14] = test system: MDA-MB-436; details: 72 h
Procedure, shortened: as §3

[15] = test system: MDA-MB-453; details: 72 h
Procedure, shortened: as §3

[16] = test system: CAL-51; details: 72 h; remark: listed apart in the source
Procedure, shortened: as §3

[17] = test system: HCC1937; details: 72 h; remark: listed apart in the source
Procedure, shortened: as §3

[18] = test system: HCC1599; details: 72 h; remark: listed apart in the source
Procedure, shortened: as §3

[19] = test system: CAL-85-1; details: 72 h; remark: listed apart in the source
Procedure, shortened: as §3

[20] = test system: MDA-MB-231; details: 72 h
Procedure, shortened: as §3

[21] = test system: BT-549; details: 72 h; remark: listed apart in the source
Procedure, shortened: as §3

[22] = test system: HCC1143; details: 72 h; remark: listed apart in the source
Procedure, shortened: as §3

[23] = test system: Hs578T; details: 72 h; remark: listed apart in the source
Procedure, shortened: as §3

[24] = test system: CAL-120; details: 72 h
Procedure, shortened: as §3

[25] = test system: CAL-148; details: 72 h
Procedure, shortened: as §3

[26] = test system: CAL-51; details: 72 h; remark: listed apart in the source
Procedure, shortened: as §2

[27] = test system: CAL-148; details: 72 h; remark: listed apart in the source
Procedure, shortened: as §2

[28] = test system: MDA-MB-436; details: 72 h; remark: listed apart in the source
Procedure, shortened: as §2

[29] = test system: MDA-MB-231; details: 72 h; remark: listed apart in the source
Procedure, shortened: as §2

[30] = test system: MDA-MB-468; details: 72 h; remark: listed apart in the source
Procedure, shortened: as §2

[31] = test system: CAL-120; details: 72 h; remark: listed apart in the source
Procedure, shortened: as §2

[32] = test system: MDA-MB-453; details: 72 h; remark: listed apart in the source
Procedure, shortened: as §2

[33] = test system: SK-BR-3; details: 72 h; remark: listed apart in the source
Procedure, shortened: as §3

[34] = test system: MFM-223; details: 72 h
Procedure, shortened: as §3

[35] = test system: DU-4475; details: 72 h; remark: listed apart in the source
Procedure, shortened: as §2

[36] = test system: MDA-MB-231; details: 72 h; remark: listed apart in the source
Procedure: as §1

[37] = test system: BT-549; details: 72 h; remark: listed apart in the source
Procedure: as §1

[38] = test system: BT-474; details: 72 h; remark: listed apart in the source
Procedure: as §1

[39] = test system: Hs578T; details: 72 h; remark: listed apart in the source
Procedure: as §1

[40] = test system: CAL-120; details: 72 h; remark: listed apart in the source
Procedure: as §1

[41] = test system: MFM-223; details: 72 h; remark: listed apart in the source
Procedure: as §1

Compound | EC50, CellTox Green [1] [µM] | EC50, CellTiter-Blue viability [4] [µM] | EC50, CellTiter-Blue viability [5] [µM] | EC50, CellTiter-Blue viability [6] [µM] | EC50, CellTiter-Blue viability [7] [µM] | EC50, CellTiter-Blue viability [9] [µM] | EC50, CellTiter-Blue viability [10] [µM] | EC50, CellTiter-Blue viability [11] [µM] | EC50, CellTiter-Blue viability [12] [µM] | normalised viability ([3]; 10 nM) [%] | normalised viability ([3]; 1000 nM) [%] | normalised viability ([3]; 10000 nM) [%] | EC50, CellTiter-Glo [13] [µM] | EC50, CellTiter-Glo [14] [µM] | EC50, CellTiter-Glo [15] [µM] | EC50, CellTiter-Glo [16] [µM] | EC50, CellTiter-Glo [18] [µM] | EC50, CellTiter-Blue viability [26] [µM] | EC50, CellTiter-Blue viability [29] [µM] | EC50, CellTiter-Blue viability [31] [µM] | also measured
C[C@]12CC[C@@H]3c4ccc(OC(=O)N(CCCl)CCCl)cc4CC[C@H]3[C@@H]1CC[C@@H]2O [Estramustine] | 0.131 |  |  |  |  |  |  |  |  |  |  |  |  |  |  |  |  |  |  |  | EC50, CellTox Green [2]: 4.99 µM; normalised viability ([3]; 0.99 nM): 102%; normalised viability ([3]; 99 nM): 103%; normalised viability ([3]; 990 nM): 117%
C[C@]1(O)C[C@@H](c2nc(-c3ccc4ccc(-c5ccccc5)nc4c3)c3c(N)nccn32)C1 [OSI-906] |  | 0.278 | 7.72 | 0.105 | 9.83 | 7.1 | 0.881 | 1.68 | 1.91 | 104 | 86.5 | 84.6 |  |  |  |  |  |  |  |  | EC50, CellTiter-Blue viability [8]: 0.204 µM
Nc1nc2[nH]cnc2c(=S)[nH]1 [Thioguanine] |  |  | 1.35 | 9.94 | 6.66 | 9.86 |  |  | 6.56 | 104 | 62.1 | 44.4 | 4.33 | 4.73 | 4.69 | 2.31 | 3.45 | > 10 | 0.212 | 1.14 | EC50, CellTiter-Glo [17]: 0.729 µM; EC50, CellTiter-Glo [19]: 0.841 µM; EC50, CellTiter-Glo [20]: 0.491 µM; EC50, CellTiter-Glo [21]: 9.55 µM; EC50, CellTiter-Glo [22]: 4.32 µM; EC50, CellTiter-Glo [23]: 1.35 µM; EC50, CellTiter-Glo [24]: 1.32 µM; EC50, CellTiter-Glo [25]: 1.72 µM; EC50, CellTiter-Blue viability [27]: 6.6 µM; EC50, CellTiter-Blue viability [28]: 0.667 µM; EC50, CellTiter-Blue viability [30]: 0.748 µM
CC(=O)c1c(C)c2cnc(Nc3ccc(N4CCNCC4)cn3)nc2n(C2CCCC2)c1=O |  |  |  |  |  |  | 9.92 |  | 7.7 | 115 | 99.8 | 85.3 |  |  |  |  |  | 1.17 | 0.46 | 0.0128 | EC50, CellTiter-Blue viability [32]: 0.102 µM
COc1cc2c(cc1O)CC[C@@H]1[C@@H]2CC[C@]2(C)[C@@H](O)CC[C@@H]12 [2-methoxyestradiol] | 4.06 | 4.22 | 1.28 | 5.8 | 0.82 | 1.02 | 5.62 | 0.747 | 1.21 | 111 | 97.2 | 50.1 | 4.53 | 1.06 | 0.543 | 4.93 | 6.41 | 2.45 | 0.432 | 1.51 | EC50, CellTiter-Glo [33]: 3.13 µM; EC50, CellTiter-Glo [19]: 2.22 µM; EC50, CellTiter-Glo [20]: 0.938 µM; EC50, CellTiter-Glo [21]: 0.251 µM; EC50, CellTiter-Glo [22]: 1.3 µM; EC50, CellTiter-Glo [23]: 1.4 µM; EC50, CellTiter-Glo [24]: 1.02 µM; EC50, CellTiter-Glo [34]: 1.83 µM; EC50, CellTiter-Glo [25]: 7.66 µM; EC50, CellTiter-Blue viability [35]: 1.73 µM; EC50, CellTiter-Blue viability [32]: 0.552 µM; EC50, CellTiter-Blue viability [28]: 0.697 µM; EC50, CellTiter-Blue viability [30]: 3.19 µM; EC50, CellTox Green [36]: 0.756 µM; EC50, CellTox Green [37]: > 10 µM; EC50, CellTox Green [38]: 0.37 µM; EC50, CellTox Green [39]: 1.82 µM; EC50, CellTox Green [40]: 6.41 µM; EC50, CellTox Green [41]: 0.659 µM
